Assay [1] relates to AGS gastric carcinoma cells [heterozygous G12D]. Briefly: Cancer cell line proliferation (CellTiter-Glo), AGS. The format is cell-based. The conditions noted are these: Homo sapiens, 72 hr treatment, read-out: AGS CTG (EC50). As for the experimental part: (§1) The following cancer cell lines were employed: AGS gastric carcinoma [heterozygous G12D](ATCC, CRL-1739); A-427 lung carcinoma [heterozygous G12D](ATCC, HTB-53); ASPC1 pancreatic adenocarcinoma [homozygous G12D](ATCC, CRL-1682) and SW1990 pancreatic adenocarcinoma [homozygous G12D](ATCC CRL-2172). Cell lines were cultured essentially according to ATCC recommendations.
(§2) AGS, A-427, ASPC1, SW1990, and GP2D cells were plated in 96-well tissue culture plates at 4,000 cells/well and incubated at 37° C./5% CO2 for 72 hr in 100 μl of media. 3-fold serial dilutions of each test compound were prepared ranging from 20 μM to 1.02 nM. Each cell line was then treated with test compounds at various concentrations with a final concentration of 0.5% DMSO/well, and then incubated at 37° C./5% CO2 for 72 hr. 100 µl of CellTiter-Glo® Reagent (Promega Corporation, Madison, WI) was added to each well and processed according manufacturer's protocol. Results were analyzed and EC50 values were calculated in GraphPad 7 software.
In general terms: ATP-based viability assays read luminescence as a measure of living cells.

Assay [2] has as its system A-427 lung carcinoma cells [heterozygous G12D]. Briefly: Cancer cell line proliferation (CellTiter-Glo), A-427. It counts as cell-based. To be noted: Homo sapiens, A-427 cells, 72 hr treatment, read-out: A427 CTG (EC50). As for the experimental part: as §1, §2
The target of the next assay is T1, KRAS(G12D)/SOS1 (Homo sapiens, UniProt P01116, G12D).
T1 construct: purchased Cisbio 63ADK000CB17PEH
Briefly: KRAS(G12D)/SOS1 homogeneous time-resolved fluorescence (HTRF) assay. The format is binding. The conditions noted are these: absence of GTP; 4° C., 3 hr. As for the experimental part: Binding of test compounds to KRAS(G12D) target protein, which in turn blocks KRAS(G12D) interaction with the SOS1 protein, was measured in the absences of GTP by homogeneous time-resolved fluorescence using the KRAS-G12D/SOS1 Binding Assay Kit (Cisbio, 63ADK000CB17PEH), following the manufacturer's instructions, except as noted. 3-fold serial dilutions of each test compound were prepared ranging from 20 µM to 1.02 nM. The test compound was mixed and incubated with reaction components, incubated in a sealed plate at 4° C. for 3 hr and fluorescence was measured using a PerkinElmer Envision plate reader. The KRAS(G12D)-SOS1 IC50 values (the concentration of 50% of the maximal inhibition) were calculated using GraphPad Prism 7 software.
Background: In TR-FRET formats the signal depends on donor and acceptor labels being close together.

T1 sequence (P01116 1-188 isoform P01116-2 G12D): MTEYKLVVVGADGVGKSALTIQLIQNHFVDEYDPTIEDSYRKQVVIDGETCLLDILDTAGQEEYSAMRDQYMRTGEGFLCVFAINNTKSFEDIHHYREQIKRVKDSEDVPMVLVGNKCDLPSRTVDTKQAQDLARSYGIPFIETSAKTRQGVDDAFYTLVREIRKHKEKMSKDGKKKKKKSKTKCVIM

As usually defined, the EC50 is the concentration giving half of the maximal effect. As to `C#Cc1cccc2cc(O)cc(-c3ncc4c(N5CC6CCC(C5)N6)nc(OC[C@@H]5C[C@H](CN6CCN(Cc7ccc(-n8c(C(=O)NCC)nnc8-c8cc(C(C)C)c(O)cc8O)cc7)CC6)CN5C)nc4c3F)c12` [Compound 114], the 50% effective concentration (EC50) in assay [1] and in assay [2] was 100 to 1000 nM each time. Turning to `C#Cc1c(F)ccc2cc(O)cc(-c3ncc4c(N5CC6CCC(C5)N6)nc(OCC5(CN6CCN(CC#Cc7cn(Cc8ncc(C)c(OC)c8C)c8nc(N)nc(Cl)c78)CC6)CC5)nc4c3F)c12` [Compound 211], the EC50 in assay [1] is under 100 nM. One may read the IC50 as the concentration that inhibits the measured activity by half. Low values mean higher potency, high ones lower potency. The compound `CC(C)c1cc(-c2nnc(C(=O)NCC(F)(F)F)n2-c2ccc(CN3CCN([C@H]4C[C@@H](COc5nc(N6CC7CCC(C6)N7)c6cnc(-c7cc(O)cc8ccccc78)c(F)c6n5)N(C)C4)CC3)cc2)c(O)cc1O` [Compound 101] displayed an IC50 at KRAS(G12D)/SOS1 of under 100 nM. Moreover, the EC50 is under 100 nM in assay [1] and 100 to 1000 nM in assay [2]. On KRAS(G12D)/SOS1, `COc1cccc2cccc(-c3ncc4c(N5CC6CCC(C5)N6)nc(OC[C@@H]5C[C@H](N6CCN(C(=O)C7CCN(Cc8ccc9c(c8)CN(C(=O)c8cc(C(C)C)c(O)cc8O)C9)CC7)CC6)CN5C)nc4c3F)c12` [Compound 104] registered an IC50 of over 1000 nM. In addition, the EC50 in assay [1] and in assay [2] was 100 to 1000 nM throughout. Regarding `CC(C)c1cc(-c2nnc(C(=O)NC(C)C(F)(F)F)n2-c2ccc(CN3CCN(C[C@H]4C[C@@H](COc5nc(N6CC7CCC(C6)N7)c6cnc(-c7cc(O)cc8ccccc78)c(F)c6n5)N(C)C4)CC3)cc2)c(O)cc1O` (stereo partly shown) [Compound 118], the IC50 on KRAS(G12D)/SOS1 is under 100 nM. Besides, the EC50 in assay [1] was under 100 nM; in assay [2], 100 to 1000 nM. With `C#Cc1cccc2cc(O)cc(-c3ncc4c(N5CC6CCC(C5)N6)nc(OC[C@@H]5C[C@H](CN6CCN(Cc7ccc(-n8c(C(=O)NCC(F)(F)F)nnc8-c8cc(CC)c(O)cc8O)cc7)CC6)CN5C)nc4c3F)c12` [Compound 116], the EC50 in assay [1] was 100 to 1000 nM; in assay [2] it was over 1000 nM.

Turning to `CCNC(=O)c1nnc(-c2cc(C(C)C)c(O)cc2O)n1-c1ccc(CN2CCC(C(=O)N(C)[C@H]3CN4CCC[C@]4(COc4nc(N5CC6CCC(C5)N6)c5cnc(-c6cc(O)cc7ccccc67)c(F)c5n4)C3)CC2)cc1` [Compound 48], the EC50 in assay [1] is 100 to 1000 nM.

At KRAS(G12D)/SOS1, `CCc1cc(-c2nnc(C(=O)NCC(F)(F)F)n2-c2ccc(CN3CCN(C[C@H]4CC[C@@H](COc5nc(N6CC7CCC(C6)N7)c6cnc(-c7cc(C)cc8ccccc78)c(F)c6n5)N4C)CC3)cc2)c(O)cc1O` [Compound 73] had an IC50 of under 100 nM. The EC50 in assay [1] and in assay [2] was 100 to 1000 nM throughout. Turning to `COc1cccc2cccc(-c3ncc4c(N5CC6CCC(C5)N6)nc(OC[C@@H]5C[C@H](N6CCN(Cc7ccc(-n8c(C(=O)NC(C)C(F)(F)F)nnc8-c8cc(C(C)C)c(O)cc8O)cc7)CC6)CN5C)nc4c3F)c12` (stereo partly shown) [Compound 106], at KRAS(G12D)/SOS1, the IC50 was over 1000 nM. Moreover, the figures for the EC50 in assay [1] and in assay [2] were under 100 nM and 100 to 1000 nM, respectively.

For the compound `C#Cc1c(F)ccc2cc(O)cc(-c3ncc4c(N5CC6CCC(C5)N6)nc(OCC5(CN6CCC(N7CCN(Cc8cc9c(cc8F)CN(C(=O)c8cc(C(C)C)c(O)cc8O)C9)CC7)CC6)CC5)nc4c3F)c12` [Compound 209], the EC50 in assay [1] was under 100 nM. On the same count and under the same terms, to `C#Cc1c(F)ccc2cc(O)cc(-c3ncc4c(N5CC6CCC(C5)N6)nc(OCC5(CN6CC(C7CCN(Cc8ccc9c(c8)CN(C(=O)c8cc(C(C)C)c(O)cc8O)C9)CC7)C6)CC5)nc4c3F)c12` [Compound 215] belongs under 100 nM; to `C#Cc1c(F)ccc2cc(O)cc(-c3nc(OC)c4c(N5CC6CCC(C5)N6)nc(OC5CN(CC6(F)CN(Cc7ccc8c(c7)CN(C(=O)c7cc(C(C)C)c(O)cc7O)C8)C6)C5)nc4c3F)c12` [Compound 210], 100 to 1000 nM; to `C#Cc1c(F)ccc2cc(O)cc(-c3ncc4c(N5CC6CCC(C5)N6)nc(OCC5(CN6CCC(N7CCN(Cc8ccc9c(c8)CN(C(=O)c8cc(C(C)C)c(OC)cc8OC)C9)CC7)CC6)CC5)nc4c3F)c12` [Compound 196], under 100 nM. Still for that read-out and setting: to `C#Cc1c(F)ccc2cc(O)cc(-c3ncc4c(N5CC6CCC(C5)N6)nc(OCC5(CN6CC(C7CN(Cc8ccc9c(c8)CN(C(=O)c8cc(C(C)C)c(O)cc8O)C9)C7)C6)CC5)nc4c3F)c12` [Compound 213] belongs under 100 nM; to `C#Cc1c(F)ccc2cc(O)cc(-c3ncc4c(N5CC6CNC(C6)C5)nc(OCC5(CN6CCC(N7CCN(Cc8ccc9c(c8)CN(C(=O)c8cc(C(C)C)c(O)cc8O)C9)CC7)CC6)CC5)nc4c3F)c12` (stereo not shown) [Compound 207], 100 to 1000 nM.

As to `CCc1cc(-c2nnc(C(=O)NCC(F)(F)F)n2-c2ccc(CN3CCN([C@H]4C[C@@H](COc5nc(N6CC7CCC(C6)N7)c6cnc(-c7ccccc7C(F)(F)F)c(F)c6n5)N(C)C4)CC3)cc2)c(O)cc1O` [Compound 111], the EC50 in assay [1] and in assay [2] was 100 to 1000 nM in each case. Turning to `C#Cc1cccc2cc(O)cc(-c3ncc4c(N5CC6CCC(C5)N6)nc(OC[C@@H]5C[C@H](CN6CCN(Cc7ccc(-n8c(C(=O)NC(C)C(F)(F)F)nnc8-c8cc(C(C)C)c(O)cc8O)cc7)CC6)CN5C)nc4c3F)c12` (stereo partly shown) [Compound 115], the EC50 in assay [1] and in assay [2] was 100 to 1000 nM in each case.

On to `C#Cc1cccc2cc(O)cc(-c3ncc4c(N5CC6CCC(C5)N6)nc(OC[C@@H]5C[C@H](CN6CCN(Cc7ccc8c(c7)CN(C(=O)c7cc(C(C)C)c(O)cc7O)C8)CC6)CN5C)nc4c3F)c12` [Compound 113], for which the EC50 in assay [1] and in assay [2] was 100 to 1000 nM each time. For `C#Cc1c(F)ccc2cc(O)cc(-c3ncc4c(N5CC6CCC(C5)N6)nc(OCC5(CN6CCC(N7CCC(Oc8ccc9c(n8)CN(C(=O)c8cc(C(C)C)c(O)cc8O)C9)CC7)CC6)CC5)nc4c3F)c12` [Compound 216], the EC50 in assay [1] was under 100 nM. As to `C#Cc1c(F)ccc2cc(O)cc(-c3ncc4c(N5CC6CCC(C5)N6)nc(OC[C@H]5CCCN5Cc5ccc(-n6c(C(=O)NC(C)C(F)(F)F)nnc6-c6cc(C(C)C)c(O)cc6O)cc5)nc4c3F)c12` (stereo partly shown) [Compound 206], the EC50 in assay [1] was 100 to 1000 nM. For `CC(C)c1cc(C(=O)N2Cc3ccc(CN4CCN(C[C@H]5C[C@@H](COc6nc(N7CC8CCC(C7)N8)c7cnc(-c8cc(O)cc9ccccc89)c(F)c7n6)N(C)C5)CC4)cc3C2)c(O)cc1O` [Compound 90], the EC50 in assay [1] and in assay [2] was 100 to 1000 nM throughout. Consider `C#Cc1c(F)ccc2cc(O)cc(-c3ncc4c(N5CC6CCC(C5)N6)nc(OCC5(CN6CC(CN(C)CCOc7ccc8c(c7)CN(C(=O)c7cc(C(C)C)c(O)cc7O)C8)C6)CC5)nc4c3F)c12` [Compound 218], for which, in assay [1], the EC50 fell in the range of 100 to 1000 nM. Same read-out and setting: to `C#Cc1c(F)ccc2cc(O)cc(-c3ncc4c(N5CC6CCC(C5)N6CC#N)nc(OCC5(CN6CCC(N7CCN(Cc8ccc9c(c8)CN(C(=O)c8cc(C(C)C)c(O)cc8O)C9)CC7)CC6)CC5)nc4c3F)c12` [Compound 208] belongs under 100 nM. Regarding `CCNC(=O)c1nnc(-c2cc(C(C)C)c(O)cc2O)n1-c1ccc(CN2CCC(C(=O)N(C)[C@H]3CN4CCC[C@@]4(COc4nc(N5CC6CCC(C5)N6)c5cnc(-c6cc(O)cc7ccccc67)c(F)c5n4)C3)CC2)cc1` [Compound 47], the IC50 against KRAS(G12D)/SOS1 is under 100 nM. Further, the EC50 in assay [1] is 100 to 1000 nM.

For `CC(C)c1cc(C(=O)N2Cc3ccc(CN4CCC(C(=O)N5CCN(C[C@H]6C[C@@H](COc7nc(N8CC9CCC(C8)N9)c8cnc(-c9cc(O)cc%10ccccc9%10)c(F)c8n7)N(C)C6)CC5)CC4)cc3C2)c(O)cc1O` [Compound 112], the EC50 in assay [1] and in assay [2] was over 1000 nM in each case. `C#Cc1cccc2cccc(-c3ncc4c(N5CC6CCC(C5)N6)nc(OCC5(CN6CCN(C(=O)C7CCN(Cc8ccc9c(c8)CN(C(=O)c8cc(C(C)C)c(O)cc8O)C9)CC7)CC6)CC5)nc4c3F)c12` [Compound 46]: at KRAS(G12D)/SOS1, the IC50 is under 100 nM. Consider `Cc1c(F)cccc1-c1ncc2c(N3CC4CCC(C3)N4)nc(OC[C@@H]3C[C@H](N4CCN(C(=O)C5CCN(Cc6ccc7c(c6)CN(C(=O)c6cc(C(C)C)c(O)cc6O)C7)CC5)CC4)CN3C)nc2c1F` [Compound 84], for which the EC50 in assay [1] and in assay [2] was 100 to 1000 nM each time.

As to `CC(C)c1cc(-c2nnc(C(=O)NC(C)C(F)(F)F)n2-c2ccc(CN3CCN([C@H]4C[C@@H](COc5nc(N6CC7CCC(C6)N7)c6cnc(-c7ccccc7C(F)(F)F)c(F)c6n5)N(C)C4)CC3)cc2)c(O)cc1O` (stereo partly shown) [Compound 110], the EC50 in assay [1] and in assay [2] was 100 to 1000 nM each time. For `C#Cc1cccc2cc(O)cc(-c3ncc4c(N5CC6CCC(C5)N6)nc(OCC5(CN6CCC(N7CCN(Cc8ccc9c(c8)CN(C(=O)c8cc(C(C)C)c(O)cc8O)C9)CC7)CC6)CC5)nc4c3F)c12` [Compound 214], the EC50 in assay [1] was under 100 nM.

For the origin of these results see patent US20260070929A1, “METHODS AND COMPOSITIONS FOR MODULATING KRAS(G12D)” (Ranok Therapeutics (Hangzhou) Co. LTD., priority 2022, published 2026).
